Experimental data published in US11419852B2, “Beta-lactam compounds or salts thereof for use in long-acting prevention or treatment of a glucose metabolism disorder” (GLYCOLYSIS BIOMED CO., LTD., priority 2019, dated 2022).
Marks after values point to notes of the source that are not given here.

System: db/db mice
Test: Oral glucose tolerance test (OGTT)
Format: in vivo
Parameters: OGTT AUC: unit not given here
Method: Four to five weeks old db/db mice (BKS.Cg-Dock7^m+/+Lepr^db/JNarl) and m/m mice (BKS.Cg-Dock7^m+/Dock7^m+) were obtained from National Laboratory Animal Center ([…], Taiwan). […] PMI Nutrition International, Brentwood, Mo.) and water ad libitum. […] Blood was sampled from the tail vein, and FPG levels were measured and recorded as the basic blood glucose levels. […] The total area under the curve (AUC) in OGTT was plotted and calculated by the Area Under Coordinates Program (StatsToDo Server, Department of Obstetrics and Gynecology, Chinese University of Hong Kong).

SMILES: C[C@@H](O)[C@H]1C(=O)N2C(C(=O)O)=C(S[C@@H]3CN[C@H](C(=O)Nc4cccc(C(=O)O)c4)C3)[C@H](C)[C@H]12 [DMH, ertapenem]
- Level of OGTT (blood glucose) (Ex 2 G5 db/db, DMH i.p. 0.2 mg/g bw/day, dosing 6 weeks, Week 6, 15 min): 750 ± 57 mg/dL
- Level of OGTT (blood glucose) (Ex 2 G5 db/db, DMH i.p. 0.2 mg/g bw/day, dosing 6 weeks, Week 6, 30 min): 618 ± 68 mg/dL
- Level of OGTT (blood glucose) (Ex 2 G5 db/db, DMH i.p. 0.2 mg/g bw/day, dosing 6 weeks, Week 6, 60 min): 425 ± 63 mg/dL
- Level of OGTT (blood glucose) (Ex 2 G5 db/db, DMH i.p. 0.2 mg/g bw/day, dosing 6 weeks, Week 6, 120 min): 316 ± 92^bc
- Level of OGTT (blood glucose) (Ex 2 G5 db/db, DMH i.p. 0.2 mg/g bw/day, dosing 6 weeks, Week 12, 0 min): 191 ± 42^bc
- Level of OGTT (blood glucose) (Ex 2 G5 db/db, DMH i.p. 0.2 mg/g bw/day, dosing 6 weeks, Week 12, 15 min): 879 ± 45 mg/dL
- Level of OGTT (blood glucose) (Ex 2 G5 db/db, DMH i.p. 0.2 mg/g bw/day, dosing 6 weeks, Week 12, 30 min): 790 ± 40^bc
- Level of OGTT (blood glucose) (Ex 2 G5 db/db, DMH i.p. 0.2 mg/g bw/day, dosing 6 weeks, Week 12, 60 min): 548 ± 69 mg/dL
- Level of OGTT (blood glucose) (Ex 2 G5 db/db, DMH i.p. 0.2 mg/g bw/day, dosing 6 weeks, Week 12, 120 min): 440 ± 81^bc
- Level of OGTT (blood glucose) (Ex 2 G5 db/db, DMH i.p. 0.2 mg/g bw/day, dosing 6 weeks, Week 16, 0 min): 154 ± 56^ab
- Level of OGTT (blood glucose) (Ex 2 G5 db/db, DMH i.p. 0.2 mg/g bw/day, dosing 6 weeks, Week 16, 15 min): 619 ± 48 mg/dL
- Level of OGTT (blood glucose) (Ex 2 G5 db/db, DMH i.p. 0.2 mg/g bw/day, dosing 6 weeks, Week 16, 30 min): 686 ± 34^bc
- Level of OGTT (blood glucose) (Ex 2 G5 db/db, DMH i.p. 0.2 mg/g bw/day, dosing 6 weeks, Week 16, 60 min): 551 ± 52^bc
- Level of OGTT (blood glucose) (Ex 2 G5 db/db, DMH i.p. 0.2 mg/g bw/day, dosing 6 weeks, Week 16, 120 min): 314 ± 54^bc
- Level of OGTT (blood glucose) (Ex 2 G5 db/db, DMH i.p. 0.2 mg/g bw/day, dosing 6 weeks, Week 18, 0 min): 308 ± 51 mg/dL
- Level of OGTT (blood glucose) (Ex 2 G5 db/db, DMH i.p. 0.2 mg/g bw/day, dosing 6 weeks, Week 18, 15 min): 943 ± 43 mg/dL
- Level of OGTT (blood glucose) (Ex 2 G5 db/db, DMH i.p. 0.2 mg/g bw/day, dosing 6 weeks, Week 18, 30 min): 941 ± 53 mg/dL
- Level of OGTT (blood glucose) (Ex 2 G5 db/db, DMH i.p. 0.2 mg/g bw/day, dosing 6 weeks, Week 18, 60 min): 753 ± 70 mg/dL
- Level of OGTT (blood glucose) (Ex 2 G5 db/db, DMH i.p. 0.2 mg/g bw/day, dosing 6 weeks, Week 18, 120 min): 541 ± 63^bc
- OGTT AUC (Ex 2 G5 db/db, DMH i.p. 0.2 mg/g bw/day, dosing 6 weeks, week 6): 916 ± 110^b
- OGTT AUC (Ex 2 G5 db/db, DMH i.p. 0.2 mg/g bw/day, dosing 6 weeks, week 12): 1171 ± 117^bc
- OGTT AUC (Ex 2 G5 db/db, DMH i.p. 0.2 mg/g bw/day, dosing 6 weeks, week 16): 1002 ± 88^bc
- OGTT AUC (Ex 2 G5 db/db, DMH i.p. 0.2 mg/g bw/day, dosing 6 weeks, week 18): 1462 ± 104^b
- Level of OGTT (blood glucose) (Ex 2 G6 db/db, DMH i.p. 0.4 mg/g bw/day, dosing 6 weeks, Week 6, 0 min): 175 ± 30 mg/dL
- Level of OGTT (blood glucose) (Ex 2 G6 db/db, DMH i.p. 0.4 mg/g bw/day, dosing 6 weeks, Week 6, 15 min): 747 ± 38 mg/dL
- Level of OGTT (blood glucose) (Ex 2 G6 db/db, DMH i.p. 0.4 mg/g bw/day, dosing 6 weeks, Week 6, 30 min): 669 ± 69 mg/dL
- Level of OGTT (blood glucose) (Ex 2 G6 db/db, DMH i.p. 0.4 mg/g bw/day, dosing 6 weeks, Week 6, 60 min): 418 ± 56 mg/dL
- Level of OGTT (blood glucose) (Ex 2 G6 db/db, DMH i.p. 0.4 mg/g bw/day, dosing 6 weeks, Week 6, 120 min): 223 ± 27^ab
- Level of OGTT (blood glucose) (Ex 2 G6 db/db, DMH i.p. 0.4 mg/g bw/day, dosing 6 weeks, Week 12, 0 min): 166 ± 26^ac
- Level of OGTT (blood glucose) (Ex 2 G6 db/db, DMH i.p. 0.4 mg/g bw/day, dosing 6 weeks, Week 12, 15 min): 859 ± 50 mg/dL
- Level of OGTT (blood glucose) (Ex 2 G6 db/db, DMH i.p. 0.4 mg/g bw/day, dosing 6 weeks, Week 12, 30 min): 698 ± 65 mg/dL
- Level of OGTT (blood glucose) (Ex 2 G6 db/db, DMH i.p. 0.4 mg/g bw/day, dosing 6 weeks, Week 12, 60 min): 489 ± 55 mg/dL
- Level of OGTT (blood glucose) (Ex 2 G6 db/db, DMH i.p. 0.4 mg/g bw/day, dosing 6 weeks, Week 12, 120 min): 324 ± 47 mg/dL
- Level of OGTT (blood glucose) (Ex 2 G6 db/db, DMH i.p. 0.4 mg/g bw/day, dosing 6 weeks, Week 16, 0 min): 108 ± 22^ab
- Level of OGTT (blood glucose) (Ex 2 G6 db/db, DMH i.p. 0.4 mg/g bw/day, dosing 6 weeks, Week 16, 15 min): 543 ± 57 mg/dL
- Level of OGTT (blood glucose) (Ex 2 G6 db/db, DMH i.p. 0.4 mg/g bw/day, dosing 6 weeks, Week 16, 30 min): 650 ± 29^bc
- Level of OGTT (blood glucose) (Ex 2 G6 db/db, DMH i.p. 0.4 mg/g bw/day, dosing 6 weeks, Week 16, 60 min): 535 ± 43^bc
- Level of OGTT (blood glucose) (Ex 2 G6 db/db, DMH i.p. 0.4 mg/g bw/day, dosing 6 weeks, Week 16, 120 min): 244 ± 35^ab
- Level of OGTT (blood glucose) (Ex 2 G6 db/db, DMH i.p. 0.4 mg/g bw/day, dosing 6 weeks, Week 18, 0 min): 266 ± 35 mg/dL
- Level of OGTT (blood glucose) (Ex 2 G6 db/db, DMH i.p. 0.4 mg/g bw/day, dosing 6 weeks, Week 18, 15 min): 872 ± 46 mg/dL
- Level of OGTT (blood glucose) (Ex 2 G6 db/db, DMH i.p. 0.4 mg/g bw/day, dosing 6 weeks, Week 18, 30 min): 860 ± 58 mg/dL
- Level of OGTT (blood glucose) (Ex 2 G6 db/db, DMH i.p. 0.4 mg/g bw/day, dosing 6 weeks, Week 18, 60 min): 637 ± 64 mg/dL
- Level of OGTT (blood glucose) (Ex 2 G6 db/db, DMH i.p. 0.4 mg/g bw/day, dosing 6 weeks, Week 18, 120 min): 480 ± 73 mg/dL
- OGTT AUC (Ex 2 G6 db/db, DMH i.p. 0.4 mg/g bw/day, dosing 6 weeks, week 6): 884 ± 84^b
- OGTT AUC (Ex 2 G6 db/db, DMH i.p. 0.4 mg/g bw/day, dosing 6 weeks, week 12): 1026 ± 94^b
- OGTT AUC (Ex 2 G6 db/db, DMH i.p. 0.4 mg/g bw/day, dosing 6 weeks, week 16): 916 ± 68^b
- OGTT AUC (Ex 2 G6 db/db, DMH i.p. 0.4 mg/g bw/day, dosing 6 weeks, week 18): 1291 ± 118^b
- Regulation of blood glucose homeostasis (OGTT glucose vs G8) (Ex 3, medications stopped for at least 3 weeks (FIG. 6A, 6B)): still effective
- OGTT AUC (Ex 3: db/db mice, daily dosing 3 weeks at doses of Table 10, Week 6 (stopped for 3 weeks)): 1263 ± 135^b
- OGTT AUC (Ex 3: db/db mice, daily dosing 3 weeks at doses of Table 10, Week 9 (stopped for 6 weeks)): 1356 ± 149^bc
